Experimental findings from patent publication US20190125735A1, “INHIBITION OF P38 MAPK FOR THE TREATMENT OF CANCER” (Board of Regents, The University of Texas System, priority 2015, published 2019) are described below.

For one assay, the system named is HMLE cells. Nature of the assay: FOXC2 immunostaining at leading edge of scratched HMLE monolayer. Format: cell-based, human. The settings on record: 9 h post-wound. The procedure:
FIGS. 13A-13F: FOXC2 expression correlates with p38 activation in cells with mesenchymal and stem cell properties. […] (B) Cell lysates from the indicated cells were analyzed by immunoblotting for p-p38, p38 and FOXC2. β-actin was used as a loading control. […] Cell lysates were analyzed by immunoblotting for FOXC2. β-actin was used as a loading control (D) The indicated cells were transduced with p38 shRNA (shp38) or control shRNA (shControl). Cell lysates were analyzed by immunoblotting for p38 and FOXC2. β-actin was used as a loading control. […] (F) For the wound healing assay, a confluent monolayer culture of epithelial HMLE cells was scratched with a sterile pipette tip. […] Nuclei were counterstained with DAPI. Scale bar, 20 μm.

Assay [1] concerns HMLE-Snail-ER and HMLE-Twist-ER cells. As to the kind of experiment: FACS CD44high/CD24low of 4-OHT-treated HMLE-Snail-ER and HMLE-Twist-ER cells. Type of assay: cell-based, human. The note with it: 4-OHT-treated cells, SB203580 exposure. As to the method:
FIGS. 15A-15L: p38 inhibition compromises the acquisition and maintenance of EMT and stem cell properties in vitro. […] Cells were harvested and the corresponding lysates were analyzed by immunoblotting for FOXC2, E-cadherin and mesenchymal markers. β-actin was used as a loading control. […] Cells were harvested at the indicated timepoints and the corresponding lysates were analyzed by immunoblotting for FOXC2, E-cadherin and mesenchymal markers. β-actin was used as a loading control. […] One thousand cells were seeded per well in ultra-low attachment plates and cultured for 7-10 days. Spheres with a diameter greater than 75 μm were counted. The data are reported as the number of spheres formed/1000 seeded cells±SEM. […] Data are presented as mean±SEM. […] The corresponding lysates were analyzed by immunoblotting for FOXC2, E-cadherin and mesenchymal markers. β-actin was used as a loading control. (F) The sphere-forming efficiency of 4-OHT-treated HMLE-Twist-ER cells, transduced with control shRNA (shControl) or p38 shRNA (shp38), was determined. […] (H) The sphere-forming efficiency of the indicated cells was determined in the presence of vehicle or SB203580. […] (J) The relative wound closure by the indicated cells, treated with vehicle or SB203580, was measured by image analysis and represented in a graphical format. […] Degradation of FITC-gelatin was quantified by image analysis. n=150 cells/sample. […]

The next assay has as its system BCR-ABL+ mouse ALL cells. The note with it: MSC co-culture.
The test system of the next assay is HMLE-Snail-ER cells. Nature of the assay: 4-OHT inducible EMT in HMLE-Snail-ER cells, immunoblotting. Format: cell-based, human. The settings on record: HMLE-Snail-ER concurrently exposed to 4-OHT and SB203580. The procedure:
(§1) To ascertain whether inhibiting p38 impedes the initiation of EMT, two dynamic models of EMT induction were utilized. First, MCF10A immortalized human mammary epithelial cells were treated with TGFβ1 which elicits EMT. […] Second, an inducible EMT system was used wherein a fusion protein, comprising the EMT-inducing transcription factors Snail or Twist and the estrogen-binding domain of the estrogen receptor (ER), is stably expressed in epithelial HMLE cells (HMLE-Snail-ER, HMLE-Twist-ER). Addition of the ER-ligand tamoxifen (4-OHT) promotes nuclear translocation of the Snail-ER and Twist-ER proteins and elicits EMT. […] Similarly, p38 shRNA abolished the capacity of HMLE-Twist-ER cells to undergo EMT (FIG. 4E, compare lanes 4 to 8) and to form spheres (FIG. 16F) in response to 4-OHT treatment.
(§2) Immortalized human mammary epithelial (HMLE) cells expressing empty vector (pWZL), Snail, Twist, Goosecoid (GSC), or an activated form of TGFβ1, V12H-Ras-transformed HMLE (HMLER) and HMLER-FOXC2 cells were maintained as previously described (Elenbaas et al., 2001) For 4-hydroxy-tamoxifen (4-OHT) treatment, HMLE-Snail-ER or HMLE-Twist-ER cells were exposed to 20 nM 4-OHT for the indicated number of days. MCF7, MDA-MB-231 and SUM159 human breast cancer cells and the 4T1 mouse mammary carcinoma cells were cultured as described. […]
On the technique in general: In western blotting, separated proteins are transferred to a membrane and probed.

Assay [2] concerns DU145 cells. As to the kind of experiment: DU145 subcutaneous tumors in NOD/SCID mice. Format: in vivo. The note with it: subcutaneous dosing 5 days/week; SB203580 0.2 μmols per mouse, Enzalutamide 10 mg/kg; vs vehicle.
Protocol: To investigate the effect of inhibition of FOXC2-dependent EMT/CSC attributes on tumor formation in vivo, NOD/SCID mice were subcutaneously injected with DU145 cells and began treatment in vivo, after formation of palpable tumors.
Immediately after sacrificing the mice, ˜100 μl blood was isolated via venipuncture in EDTA-treated collection tubes and stored on ice. Within 30 minutes, the blood was spun down at 1200 rpm for 5 minutes, and the pellet resuspended in 1 ml ACK-lysing buffer (Life Tech) and further incubated for 3-5 minutes. Cells were washed once with PBS, resuspended in RPMI with 10% FBS and pen/strep, and cultured on 10 cm tissue culture dishes. RFP-positive colonies (originating from the labeled DU145 cells injected into mice) were counted after 3-4 days in culture and quantified.
˜4 week-old male NOD.CB17-Prkdcscid/J mice were purchased from the Jackson Laboratory (Maine, USA). […] Once palpable tumors were discernable, tumor-bearing mice were randomly segregated into 4 groups, and drug treatment was initiated every 24 hours for 5 days/week. […] Investigators were blinded to the group allocation while assessing experimental outcomes. At the end of the treatment period, tumors were excised, average diameter calculated using calipers, and tumor weight noted. […]
For the next assay, the system named is MCF10A cells. Nature of the assay: TGFβ1-induced EMT in MCF10A cells, immunoblotting. The settings on record: TGFβ1-treated MCF10A, concomitant SB203580, 3 days. Type of assay: cell-based, human. As to the method:
as §1, §2

Assay [3] relates to DU145 cells. As to the kind of experiment: Tumorsphere assay, DU145 cells. Type of assay: cell-based, human. The note with it: DU145, SB203580 5 μM, 7 days. The procedure: Cell lines: Authenticated LNCaP, DU145, and PC3 cells were procured from ATCC and cultured in RPMI with 10% fetal bovine serum (FBS) with penicillin/streptomycin. Cells overexpressing EMT transcription factors and shRNA were also cultured in the same media. HEK293T cells were cultured in DMEM with 10% FBS and penicillin/streptomycin. All cell lines used for this study were recently confirmed negative for mycoplasma contamination.
Immunoblotting, Immunofluorescence, RTPCR, wound healing- and tumorsphere assays were performed as previously described (Sarkar et al., 2015). Cell viability (MTS) was assessed using the CellTiter96 Aqueous One-Solution Cell Proliferation Assay kit (Promega).

In another assay the test system is mouse BCR-ABL+ ALL cells. As to the kind of experiment: BCR-ABL+ ALL model in NOD-SCID mice. Type of assay: in vivo. The settings on record: dasatinib 10 mg/kg oral, dexamethasone 1 mg/kg oral, SB203580 40 mg/kg i.p.; treatment from day 5.

Protocol for BCR-ABL+ mouse ALL cells: To measure cell proliferation, co-cultures of MSCs and luciferase-labeled leukemic cells were mixed with D-Luciferin (Biosynth, Itasca, Ill.) to a final concentration of 0.5 mg/mL. Samples were incubated at room temperature for 1 minute and were imaged with the IVIS Lumina imaging system (PerkinElmer, Waltham, Mass.).
Description for mouse BCR-ABL+ ALL cells: Leukemia progression was monitored by both bioluminescence imaging and quantifying mCherry+ ALL cells in peripheral blood samples by flow cytometry. […] Non-obese diabetic severe combined immunodeficient (NOD-SCID) mice were housed under high-barrier conditions in the Department of Veterinary Medicine and Surgery at MD Anderson. To generate the in vivo leukemia model, six to eight weeks old NOD-SCID mice were intravenously injected with luciferase- and mCherry-expressing BCR-ABL+ mouse leukemic cells (2×10^6 cells); engraftment of the transplanted cells was confirmed by bioluminescence imaging. For bioluminescence imaging, each mouse was intraperitoneally injected with D-Luciferin (150 mg/kg) and imaged using the IVIS Lumina imaging system (PerkinElmer).
Leukemia treatment started 5 days after transplantation. […] Treatment was continued until mice were succumbed to disease.
Bone marrow samples from the mice were harvested 4 days after initiating the drug treatment. […] Peripheral blood specimens were directly harvested from mice tail tips into PBS supplemented with ethylenediaminetetraacetic acid (2 mM). Red blood cells were subjected to lysis and were neutralized with 20% fetal bovine serum supplemented with alpha minimum essential medium. mCherry+ leukemic cells in the peripheral blood were detected by flow cytometry analysis after red blood cells were lysed.

In the case of `C[S+]([O-])c1ccc(-c2nc(-c3ccc(F)cc3)c(-c3ccncc3)[nH]2)cc1` (centres unmarked) [SB203580, 4-(4-Fluorophenyl)-2-(4-methylsulfinylphenyl)-5-(4-pyridyl) 1H-imidazole], the “Upregulation of FOXC2 at the leading edge of scratch” value in the assay on HMLE cells is recorded as “abrogated the upregulation of FOXC2 at the leading edge”. For the same compound, the “CD44^high/CD24^low marker profile” value in assay [1] was “failed to acquire”. The “Proliferation of leukemic cells” value in the assay with BCR-ABL+ mouse ALL cells was “did not affect proliferation or apoptosis of leukemic cells”. Also, the “EMT and FOXC2 upregulation” value in the assay on HMLE-Snail-ER cells is reported as “failed to undergo EMT or upregulate FOXC2”. Besides, in the assay with DU145 cells [2], the “Tumor size (volume and weight)” value is “no appreciable change in tumor size”. Moreover, the “FOXC2, mesenchymal and epithelial markers” value in the assay with MCF10A cells is “suppresses the upregulation of FOXC2 and mesenchymal markers (fibronectin, vimentin) and prevents downregulation of the epithelial marker E-cadherin”. In addition, the Tumorsphere formation result in the assay with DU145 cells [3] is “significant reduction”. Further, in the assay with mouse BCR-ABL+ ALL cells, the “Leukemia progression and survival (therapeutic efficacy)” value is on record as “did not slow leukemia progression or prolong survival”.
